Reference: patent publication US20140225048A1, “LIQUID COMPOSITION, AND COLOR-FILTER RESIST COMPOSITION, THERMAL-TRANSFER RECORDING SHEET AND INK WHICH MAKE USE OF THE LIQUID COMPOSITION” (CANON KABUSHIKI KAISHA, priority 2011, published 2014)

Test: Examination of solubility of compounds in toluene
Conditions: in toluene at room temperature

Compound | Solubility
Cn1c(=O)cc2c3c(c(Nc4ccccc4)ccc31)C(=O)c1ccccc1-2 [(1)] | ≦1%
Cc1ccc(Nc2ccc3c4c(cc(=O)n3C)-c3ccccc3C(=O)c24)cc1 [(2)] | ≦1%
Cc1cccc(Nc2ccc3c4c(cc(=O)n3C)-c3ccccc3C(=O)c24)c1 [(3)] | ≦1%
Cc1ccc(Nc2ccc3c4c(cc(=O)n3-c3ccc(C)cc3)-c3ccccc3C(=O)c24)cc1 [(4)] | ≦1%
O=C1c2ccccc2-c2cc(=O)n(C3CCCCC3)c3ccc(NC4CCCCC4)c1c23 [(5)] | ≦0.1% ^
CCCCC(CC)CNc1ccc2c3c(cc(=O)n2C)-c2ccccc2C(=O)c13 (stereo not drawn) [Compound (1)] | 5%
CCCCC(CC)CNc1ccc2c3c(cc(=O)n2CC(CC)CCCC)-c2ccccc2C(=O)c13 (stereo not drawn) [Compound (5)] | ≧10%^
CCCCCCCCCCCCNc1ccc2c3c(cc(=O)n2CCCC)-c2ccccc2C(=O)c13 [Compound (8)] | ≧10%^
CCCCn1c(=O)cc2c3c(c(NCCC4=CCCCC4)ccc31)C(=O)c1ccccc1-2 [Compound (9)] | ≧10%^
